According to patent US20260248800A1, “FERROPTOSIS INHIBITORS AND USES THEREOF” (UNIVERSITY OF OTTAWA, priority 2022, published 2026):
Like-named read-outs stand apart in the source and are kept apart here.

Experiments:
[1] = MeOAMVN-initiated co-autoxidation of STY-BODIPY and egg PC liposomes (FENIX); format: biochemical; conditions: for n (radical-trapping stoichiometry): MeOAMVN-initiated co-autoxidation of STY-BODIPY and egg PC liposomes; for kinh^lip (predicted/estimated): estimated from kinh^0 and effective β2^H of egg PC liposomes
[2] = H-bond acidity (α2^H) of the RTA by 1H NMR; format: physicochemical; conditions: estimated from the 1H NMR chemical shift difference of the amine proton in DMSO-d6 and benzene-d6
[3] = tested on: Pfa-1 mouse embryonic fibroblasts (MEFs); experiment: cells; conditions: Fibroblast
[4] = apparent inhibition rate constant, MeOAMVN-initiated autoxidation of egg PC liposomes, determined by fluorescence
[5] = 5 h, read-out: Pfa-1 MEF Ferroptosis EC50, RSL3-induced cell death (150 nM for 5 hours), AquaBluer
[6] = apparent inhibition rate constant, MeOAMVN-initiated autoxidation of egg PC liposomes, determined by absorbance (STY-BODIPY 10-20 μM, 565 nm)
[7] = Table 6, from survival curve of RSL3 induced ferroptosis of pfa-1 MEFS
[8] = predicted from log kinh^0, α2^H and β2^H=0.69 using Eq. 4 (too reactive to be determined directly)

SMILES | n (radical-trapping stoichiometry) [1] | kinh^lip [1, 4] | α2^H [2] | EC50 [3, 5] | other results
c1ccc2c(c1)Nc1cc3ccccc3cc1S2 [Compound 5, 12H-Benzo[b]phenothiazine, reference compound] | 1.9 ± 0.1 | (51 ± 3) 10^5 M^−1s^−1 | 0.40 | 7.8 ± 0.2 nM | –
c1ccc2c(c1)Nc1ccccc1[Se]2 [Compound 3, phenoselenazine, reference compound] | 2.3 ± 0.1 | – | 0.36 | 23 ± 2 nM | kinh^lip [1, 6]: (56 ± 3)^e 10^5 M^−1s^−1
Cc1ccc2c(c1)Oc1cc([N+](=O)[O-])ccc1N2 [Compound 16, 3-Methyl-7-nitrophenoxazine] | 3.8 ± 0.3 | – | 0.60 | 15 ± 1 nM | kinh^lip [1, 6]: (23 ± 2)^e 10^5 M^−1s^−1
N#Cc1ccc2c(c1)Oc1cc([N+](=O)[O-])ccc1N2 [Compound 23, 3-cyano-7-nitrophenoxazine] | – | – | 0.69 | 455 ± 19 nM | kinh^lip [1, 6]: (1.6 ± 0.1)^e 10^5 M^−1s^−1
CN1CCN(S(=O)(=O)c2ccc3c(c2)Oc2ccc(C(C)(C)C)cc2N3)CC1 [Compound 61, 2-tert-Butyl-7-(4-methylpiperazin-1-ylsulfonyl)-phenoxazine] | – | – | – | 15 ± 1 nM | –
FC(F)(F)c1ccc2c(c1)Oc1ccccc1N2 [Compound 9, 3-trifluoromethylphenoxazine] | 3.0 ± 0.1 | (42 ± 2) 10^5 M^−1s^−1 | – | 12 nM | EC50 [3, 7]: 12 ± 1 nM
CC(c1ccc2c(c1)Nc1ccccc1O2)S(=O)(=O)N1CCN(C)CC1 (centres unmarked) [Compound 47, 2-(1-((4-methylpiperazin-1-yl)sulfonyl)ethyl)-10H-phenoxazine] | – | – | – | 45 ± 6 nM | EC50 [3, 7]: 45 ± 6 nM
N#Cc1ccc2c(c1)Oc1cc(C=O)ccc1N2 [Compound 14, 3-Cyano-7-formylphenoxazine] | – | (7.1 ± 0.1) 10^5 M^−1s^−1 | 0.64 | – | EC50 ([3]; 5 h, read-out: Pfa-1 MEF Ferroptosis EC50): 240 ± 16 nM
COc1ccc2c(c1)Oc1cc(OC)ccc1N2 [Compound 40, 3,7-dimethoxyphenoxazine] | – | – | 0.40 | 11 nM | kinh^lip (predicted/estimated) [1]: 6e+06 M⁻¹ s⁻¹; kinh^lip [1, 8]: 6530 ^f 10^5 M^−1s^−1
CCN(CC)S(=O)(=O)c1ccc2c(c1)Oc1ccccc1N2 [Compound 65, N,N-diethyl-3-sulfonamidephenoxazine] | – | – | – | 31 ± 1 nM | –
O=[N+]([O-])c1ccc2c(c1)Sc1ccccc1N2 [Compound 28, 3-nitrophenothiazine, reference compound] | 2.0 ± 0.1 | (5.3 ± 0.3) 10^5 M^−1s^−1 | 0.52 | 140 ± 18 nM | –
CC(C)(C)c1ccc2c(c1)Nc1cc(C(C)(C)C)ccc1O2 [Compound 33, 2,8-di-tert-butylphenoxazine] | – | – | – | 7.2 ± 0.4 nM | kinh^lip [1, 8]: 730 ^f 10^5 M^−1s^−1; EC50 [3, 7]: 7.2 ± 0.4 nM
CC(c1ccc2c(c1)Nc1ccccc1O2)S(=O)(=O)NCCN(C)C (centres unmarked) [Compound 43, N-(2-(dimethylamino)ethyl)-1-(10H-phenoxazin-2-yl)ethanesulfonamide] | – | – | – | 15 ± 1 nM | EC50 [3, 7]: 15 ± 1 nM
Cc1cc(C)c2c(c1)Oc1cc(C)cc(C)c1N2 [Compound 38, 1,3,7,9-Tetramethylphenoxazine] | – | – | 0.10 | 7.6 ± 0.2 nM | kinh^lip [1, 8]: 1500 ^f 10^5 M^−1s^−1
COc1ccc2c(c1)Oc1cc([N+](=O)[O-])ccc1N2 [Compound 17, 3-nitro-7-methoxyphenoxazine] | 2.9 ± 0.2 | – | 0.60 | 31 ± 1 nM | kinh^lip [1, 6]: (61 ± 4)e 10^5 M^−1s^−1
O=[N+]([O-])c1ccc2c(c1)Oc1cc([N+](=O)[O-])ccc1N2 [Compound 19, 3,7-Dinitrophenoxazine] | – | – | 0.72 | 405 nM | kinh^lip [1, 6]: (1.3 ± 0.1)^e 10^5 M^−1s^−1
Cc1cc(C)c2c(c1)Nc1cc(C)cc(C)c1O2 [Compound 37, 2,4,6,8-Tetramethylphenoxazine] | – | – | 0.39 | 9.6 ± 0.2 nM | kinh^lip [1, 8]: 1500 ^f 10^5 M^−1s^−1
Cc1c(C)c2c(c(C)c1O)CCC(C)(C)O2 [PMC, 2,2,5,7,8-Pentamethyl-6-chromanol, reference compound] | (2) | (29 ± 2) 10^5 M^−1s^−1 | 0.38 | 360 ± 30 nM | kinh^lip (predicted/estimated) [1]: 35000 M⁻¹ s⁻¹; kinh^lip ([1]; measured in MeOAMVN-initiated autoxidation of egg PC liposomes): 29000 M⁻¹ s⁻¹
Cc1cccc2c1Nc1c(C)cccc1S2 [Compound 31, 1,9-dimethylphenothiazine, reference compound] | 1.7 ± 0.1 | (98 ± 5) 10^5 M^−1s^−1 | 0.06 | 35 ± 2 nM | –
CCN(CC)c1ccc2c(c1)Oc1cc([N+](=O)[O-])ccc1N2 [Compound 18, N,N-diethyl-3-amine-7-nitrophenoxazine] | 2.4 ± 0.4 | – | 0.58 | 14 ± 2 nM | kinh^lip [1, 6]: (177 ± 37)^e 10^5 M^−1s^−1
CC(C)(C)c1ccc2c(c1)Nc1ccc(S(=O)(=O)N3CCNCC3)cc1O2 [Compound 60, 2-tert-Butyl-7-(piperazin-1-ylsulfonyl)-phenoxazine] | – | – | – | 3 ± 0.2 nM | EC50 [3, 7]: 3 ± 0.2 nM
FC(F)(F)c1ccc2c(c1)Sc1ccccc1N2 [Compound 26, 3-trifluoromethylphenothiazine, reference compound] | 2.6 ± 0.1 | (9.8 ± 0.5) 10^5 M^−1s^−1 | 0.45 | 41 ± 5 nM | –
CC(C)(C)c1ccc2c(c1)Oc1cc(C(C)(C)C)ccc1N2 [Compound 34, 3,7-di-tert-butylphenoxazine] | – | – | – | 7.4 ± 0.1 nM | kinh^lip [1, 8]: 1280 ^f 10^5 M^−1s^−1; EC50 [3, 7]: 7.4 ± 0.1 nM
Cc1cccc2c1Nc1c(C)cccc1O2 [Compound 36, 1,9-Dimethylphenoxazine] | – | – | 0.12 | 14 nM | kinh^lip [1, 8]: 1150 ^f 10^5 M^−1s^−1
CC(c1ccc2c(c1)Nc1ccccc1O2)S(=O)(=O)N1CCNCC1 (centres unmarked) [Compound 45, 2-(1-(piperazin-1-ylsulfonyl)ethyl)-10H-phenoxazine] | – | – | – | 13 ± 1 nM | EC50 [3, 7]: 13 ± 1 nM
c1ccc2c(c1)Nc1cc3ccccc3cc1O2 [Compound 4, 12H-Benzo[b]phenoxazine] | 2.4 ± 0.1 | (101 ± 12) 10^5 M^−1s^−1 | 0.49 | 5.2 ± 0.9 nM | –
COc1ccc2c(c1)Oc1ccccc1N2 [Compound 39, 3-methoxyphenoxazine] | – | – | 0.42 | 12 nM | kinh^lip [1, 8]: 1490 ^f 10^5 M^−1s^−1; predicted increase in kinh^lip relative to PNX ([1]; predicted/estimated kinh^lip vs PNX): 6.7 fold
O=Cc1ccc2c(c1)Oc1cc(C=O)ccc1N2 [Compound 13, 3,7-Diformylphenoxazine] | 3.2 ± 0.1 | (10 ± 1) 10^5 M^−1s^−1 | 0.63 | 340 ± 49 nM | –
O=Cc1ccc2c(c1)Sc1ccccc1N2 [Compound 27, 3-formylphenothiazine, reference compound] | 2.2 ± 0.1 | (14 ± 1) 10^5 M^−1s^−1 | 0.47 | 140 ± 10 nM | –
CC(c1ccc2c(c1)Nc1ccc(C(F)(F)F)cc1O2)S(=O)(=O)N1CCN(C)CC1 (centres unmarked) [Compound 48, 2-(1-((4-methylpiperazin-1-yl)sulfonyl)ethyl)-7-(trifluoromethyl)-10H-phenoxazine] | – | – | – | 16 ± 2 nM | EC50 [3, 7]: 16 ± 2 nM
